Drawing on patent publication US10294207B2, “Pyrazole derivatives as TNIK, IKKϵ and TBK1 inhibitor and pharmaceutical composition comprising same” (GREEN CROSS CORPORATION, priority 2015, dated 2019), this text covers IC50 for 25 compounds.

As a reminder, the IC50 is the point on the concentration scale where inhibition reaches its midpoint. Low readings indicate higher potency, high ones lower potency.

SMILES strings stand for the structures.

The target of assay [1] is T1, TBK1 (Homo sapiens, UniProt Q9UHD2).
T1 construct: purchased Promega V3991
T1 sequence (Q9UHD2 1-729): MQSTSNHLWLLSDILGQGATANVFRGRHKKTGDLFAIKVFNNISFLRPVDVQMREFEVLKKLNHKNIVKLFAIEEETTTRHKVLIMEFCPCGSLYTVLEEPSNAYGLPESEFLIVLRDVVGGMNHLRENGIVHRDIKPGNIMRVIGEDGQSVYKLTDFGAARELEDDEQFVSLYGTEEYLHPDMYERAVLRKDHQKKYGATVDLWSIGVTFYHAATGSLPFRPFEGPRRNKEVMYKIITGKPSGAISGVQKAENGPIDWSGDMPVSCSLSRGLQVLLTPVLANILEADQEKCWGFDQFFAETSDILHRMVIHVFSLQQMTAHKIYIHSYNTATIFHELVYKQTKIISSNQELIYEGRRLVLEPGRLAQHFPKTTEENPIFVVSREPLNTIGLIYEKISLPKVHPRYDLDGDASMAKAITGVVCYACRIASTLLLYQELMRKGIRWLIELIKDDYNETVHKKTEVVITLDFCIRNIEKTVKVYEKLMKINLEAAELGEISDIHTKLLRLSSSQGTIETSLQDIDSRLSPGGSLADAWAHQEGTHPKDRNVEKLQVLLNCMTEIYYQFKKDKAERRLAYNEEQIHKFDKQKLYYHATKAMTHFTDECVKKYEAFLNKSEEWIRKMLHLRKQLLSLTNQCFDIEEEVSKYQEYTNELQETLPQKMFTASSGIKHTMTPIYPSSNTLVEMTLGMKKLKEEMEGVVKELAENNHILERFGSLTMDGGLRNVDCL
In words: TBK1 inhibition, ADP-Glo Kinase Assay. The conditions noted are these: luminometer. Type of assay: biochemical. Summed up: (§1)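 Each recombinant kinase enzyme system was run per the manufacturer's protocol in 40 mM Tris pH 7.5, 20 mM MgCl2 and 0.1 mg/mL BSA. Kinase activity was detected as ADP formation by ADP-Glo luminescence.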
(ADP-Glo first removes unused ATP, then detects ADP through luciferase.)

For assay [2], the target named is T2, IKKε (Homo sapiens, UniProt Q14164).
T2 construct: purchased Invitrogen PR8031B
T2 sequence (Q14164 1-716): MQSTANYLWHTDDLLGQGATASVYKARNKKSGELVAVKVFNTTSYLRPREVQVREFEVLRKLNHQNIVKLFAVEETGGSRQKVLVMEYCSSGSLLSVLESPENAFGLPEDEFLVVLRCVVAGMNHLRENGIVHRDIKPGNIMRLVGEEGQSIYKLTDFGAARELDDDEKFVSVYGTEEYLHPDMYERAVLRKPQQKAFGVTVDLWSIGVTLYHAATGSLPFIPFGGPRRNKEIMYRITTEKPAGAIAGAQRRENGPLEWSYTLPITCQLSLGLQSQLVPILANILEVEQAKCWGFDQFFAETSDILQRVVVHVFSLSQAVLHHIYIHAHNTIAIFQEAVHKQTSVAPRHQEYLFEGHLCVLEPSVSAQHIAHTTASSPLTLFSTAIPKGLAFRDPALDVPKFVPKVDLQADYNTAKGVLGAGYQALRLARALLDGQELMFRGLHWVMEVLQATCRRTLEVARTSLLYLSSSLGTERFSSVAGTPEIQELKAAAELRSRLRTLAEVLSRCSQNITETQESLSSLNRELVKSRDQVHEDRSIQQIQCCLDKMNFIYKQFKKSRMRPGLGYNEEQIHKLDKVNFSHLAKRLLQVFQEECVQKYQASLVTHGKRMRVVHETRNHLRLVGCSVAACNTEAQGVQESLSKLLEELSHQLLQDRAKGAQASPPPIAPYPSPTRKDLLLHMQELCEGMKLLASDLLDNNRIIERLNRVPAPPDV
In words: IKKε inhibition, ADP-Glo Kinase Assay. The conditions noted are these: luminometer. The class given is biochemical. Summed up:
as §1

For `CCCCNC(=O)c1ccc2[nH]nc(NC(=O)c3ccc(N4CCOCC4)cc3)c2c1` [Example 115, N-Butyl-3-(4-morpholinobenzamido)-1H-indazole-5-carboxamide 2,2,2-trifluoroacetate], the results for the IC50 in assay [1] and in assay [2] were 0.071 µM and 0.97 µM, respectively.
For `CC(C)CCNC(=O)c1ccc2[nH]nc(NC(=O)c3ccc(N4CCOCC4)cc3)c2c1` [Example 116, N-Isopentyl-3-(4-morpholinobenzamido)-1H-indazole-5-carboxamide 2,2,2-trifluoroacetate] the same measures were 0.48 µM and 3.12 µM.
With `C[C@H]1CN(c2ccc(C(=O)Nc3n[nH]c4ccc(C(=O)NCc5cccs5)cc34)cc2)CCN1` [Example 117, (S)-3-(4-(3-Methylpiperazin-1-yl)benzamido)-N-(thiophen-2-ylmethyl)-1H-indazole-5-carboxamide 2,2,2-trifluoroacetate], the 50% inhibitory concentration (IC50) in assay [1] worked out at 0.0033 µM; in assay [2], 0.071 µM.
`CN1CCN(c2ccc(C(=O)Nc3n[nH]c4ccc(C(=O)NCc5ncon5)cc34)cc2)CC1` [Example 118]: the results for the 50% inhibitory concentration (IC50) in assay [1] and in assay [2] were 0.3 µM and 1.96 µM, respectively.
`O=C(NCc1c[nH]nn1)c1ccc2[nH]nc(NC(=O)c3ccc(N4CCOCC4)cc3)c2c1` [Example 119]: the IC50 in assay [1] is 0.46 µM; in assay [2], 1.24 µM.
For `CN1CCN(c2ccc(C(=O)Nc3n[nH]c4ccc(C(=O)NCc5ccncc5)cc34)cc2)CC1` [Example 121, 3-(4-(4-Methylpiperazin-1-yl)benzamido)-N-(pyridin-4-ylmethyl)-1H-indazole-5-carboxamide] the same measures were 0.0063 µM and 0.11 µM.
With `O=C(Nc1n[nH]c2ccc(C(=O)NC(c3cccs3)C3CC3)cc12)c1ccc(N2CCOCC2)cc1` (centres unmarked) [Example 122, N-(Cyclopropyl(thiophen-2-yl)methyl)-3-(4-morpholinobenzamido)-1H-indazole-5-carboxamide], the half-inhibitory concentration (IC50) in assay [1] was 0.0044 µM; in assay [2], 0.025 µM.
Consider `O=C(Nc1n[nH]c2ccc(CNCc3cccs3)cc12)c1ccc(N2CCOCC2)cc1` [Example 123], for which the half-inhibitory concentration (IC50) in assay [1] turned out to be 0.66 µM; in assay [2], 4.47 µM.
On to `CCC(NCc1ccc2[nH]nc(NC(=O)c3ccc(N4CCN(C)CC4)cc3)c2c1)c1cccs1` (centres unmarked) [Example 124], for which the results for the IC50 in assay [1] and in assay [2] were 2.44 µM and more than 10 µM, respectively.
In the case of `CN1CCN(c2ccc(C(=O)Nc3n[nH]c4ccc(C(=O)NC(c5cccs5)C5CC5)cc34)cc2)CC1` (centres unmarked) [Example 125, N-(Cyclopropyl(thiophen-2-yl)methyl)-3-(4-(4-methylpiperazin-1-yl)benzamido)-1H-indazole-5-carboxamide], the figures for the IC50 in assay [1] and in assay [2] were 0.026 µM and 0.037 µM, respectively.
On the same counts, the results for `O=C(Nc1n[nH]c2ccc(C(=O)NC(c3cccs3)C3CC3)cc12)c1ccc(N2CCNCC2)cc1` (centres unmarked) [Example 126, N-(Cyclopropyl(thiophen-2-yl)methyl)-3-(4-(piperazin-1-yl)benzamido)-1H-indazole-5-carboxamide] are 0.019 µM and 0.013 µM.
With `CC(NC(=O)c1ccc2[nH]nc(NC(=O)c3ccc(N4CCOCC4)cc3)c2c1)c1ccccn1` (centres unmarked) [Example 127, 3-(4-Morpholinobenzamido)-N-(1-(pyridin-2-yl)ethyl)-1H-indazole-5-carboxamide], the half-maximal inhibitory concentration (IC50) came to 0.027 µM in assay [1] and 0.14 µM in assay [2].
On to `CC(NC(=O)c1ccc2[nH]nc(NC(=O)c3ccc(N4CCN(C)CC4)cc3)c2c1)c1ccccn1` (centres unmarked) [Example 128, 3-(4-(4-Methylpiperazin-1-yl)benzamido)-N-(1-(pyridin-2-yl)ethyl)-1H-indazole-5-carboxamide], for which the half-inhibitory concentration (IC50) in assay [1] came to 0.028 µM; in assay [2] it was 0.11 µM.
On to `CC(C)CC(NC(=O)c1ccc2[nH]nc(NC(=O)c3ccc(N4CCN(C)CC4)cc3)c2c1)c1cccs1` (centres unmarked) [Example 129, N-(3-Methyl-1-(thiophen-2-yl)butyl)-3-(4-(4-methylpiperazin-1-yl)benzamido)-1H-indazole-5-carboxamide], for which the IC50 in assay [1] was determined as 0.022 µM; in assay [2], 0.054 µM.
As for `CC(C)CC(NC(=O)c1ccc2[nH]nc(NC(=O)c3ccc(N4CCOCC4)cc3)c2c1)c1cccs1` (centres unmarked) [Example 130, N-(3-Methyl-1-(thiophen-2-yl)butyl)-3-(4-morpholinobenzamido)-1H-indazole-5-carboxamide], the IC50 was determined as 0.11 µM in assay [1] and 0.9 µM in assay [2].
On to `CCC(C)(NC(=O)c1ccc2[nH]nc(NC(=O)c3ccc(N4CCN(C)CC4)cc3)c2c1)c1cccs1` (centres unmarked) [Example 131, 3-(4-(4-methylpiperazin-1-yl)benzamido)-N-(2-(thiophen-2-yl)butan-2-yl)-1H-indazole-5-carboxamide], for which the concentration for half-maximal inhibition (IC50) came to 0.03 µM in assay [1] and 0.14 µM in assay [2].
Consider `CC(NC(=O)c1ccc2[nH]nc(NC(=O)c3ccc(N4CCOCC4)cc3)c2c1)c1ccncc1` (centres unmarked) [Example 132, 3-(4-Morpholinobenzamido)-N-(1-(pyridin-4-yl)ethyl)-1H-indazole-5-carboxamide], for which the results for the half-maximal inhibitory concentration (IC50) in assay [1] and in assay [2] were 0.023 µM and 0.043 µM, respectively.
`CC(NC(=O)c1ccc2[nH]nc(NC(=O)c3ccc(N4CCN(C)CC4)cc3)c2c1)c1ccncc1` (centres unmarked) [Example 133, 3-(4-(4-Methylpiperazin-1-yl)benzamido)-N-(1-(pyridin-4-yl)ethyl)-1H-indazole-5-carboxamide]: the half-inhibitory concentration (IC50) in assay [1] worked out at 0.028 µM; in assay [2] it was 0.053 µM.
Consider `CC(C)(NC(=O)c1ccc2[nH]nc(NC(=O)c3ccc(N4CCOCC4)cc3)c2c1)c1cccs1` [Example 134, 3-(4-Morpholinobenzamido)-N-(2-(thiophen-2-yl)propan-2-yl)-1H-indazole-5-carboxamide], for which the IC50 in assay [1] stood at 0.012 µM; in assay [2], 0.033 µM.
For `CN1CCN(c2ccc(C(=O)Nc3n[nH]c4ccc(C(=O)NC(c5cccs5)C(F)(F)F)cc34)cc2)CC1` (centres unmarked) [Example 135, 3-(4-(4-Methylpiperazin-1-yl)benzamido)-N-(2,2,2-trifluoro-1-(thiophen-2-yl)ethyl)-1H-indazole-5-carboxamide] the same measures were 0.0085 µM and 0.038 µM.
In the case of `CN1CCN(c2ccc(C(=O)Nc3n[nH]c4ccc(C(=O)NC(C)(C)c5cccs5)cc34)cc2)CC1` [Example 136, 3-(4-(4-Methylpiperazin-1-yl)benzamido)-N-(2-(thiophen-2-yl)propan-2-yl)-1H-indazole-5-carboxamide], the figures for the 50% inhibitory concentration (IC50) in assay [1] and in assay [2] were 0.0057 µM and 0.024 µM, respectively.
Turning to `C[C@H]1CN(c2ccc(C(=O)Nc3n[nH]c4ccc(C(=O)NC(C)(C)c5cccs5)cc34)cc2)CCN1` [Example 137, (S)-3-(4-(3-Methylpiperazin-1-yl)benzamido)-N-(2-(thiophen-2-yl)propan-2-yl)-1H-indazole-5-carboxamide], the results for the concentration for half-maximal inhibition (IC50) in assay [1] and in assay [2] were 0.0049 µM and 0.032 µM, respectively.
Consider `O=C(Nc1n[nH]c2ccc(C(=O)NC(c3cccs3)C(F)(F)F)cc12)c1ccc(N2CCOCC2)cc1` (centres unmarked) [Example 138, 3-(4-Morpholinobenzamido)-N-(2,2,2-trifluoro-1-(thiophen-2-yl)ethyl)-1H-indazole-5-carboxamide], for which the IC50 in assay [1] is 0.039 µM; in assay [2], 0.12 µM.
Take `O=C(Nc1n[nH]c2ccc(C(=O)NC(c3ccccn3)C3CC3)cc12)c1ccc(N2CCOCC2)cc1` (centres unmarked) [Example 139, N-(Cyclopropyl(pyridin-2-yl)methyl)-3-(4-morpholinobenzamido)-1H-indazole-5-carboxamide]: the results for the IC50 in assay [1] and in assay [2] were 0.1 µM and 0.34 µM, respectively.
With `CN1CCN(c2ccc(C(=O)Nc3n[nH]c4ccc(C(=O)NC(c5ccccn5)C5CC5)cc34)cc2)CC1` (centres unmarked) [Example 140, N-(Cyclopropyl(pyridin-2-yl)methyl)-3-(4-(4-methylpiperazin-1-yl)benzamido)-1H-indazole-5-carboxamide], the figures for the half-inhibitory concentration (IC50) in assay [1] and in assay [2] were 0.084 µM and 0.27 µM, respectively.
